Experimental data reported in US20260337208A1, “HETEROCYCLIC DERIVATIVES AS JANUS KINASE INHIBITORS” (CHIESI FARMACEUTICI S.P.A., priority 2022, published 2026).

What follows are molecules tested on pSTAT6 in BEAS-2B human cell line (assay: Inhibition of IL-13 induced pSTAT6 in BEAS). Details: IL-13 trigger, 30 min; predicted acid metabolite.
Format: cell-based
Protocol: BEAS-2B human cell line was seeded (100.000 cells/well) and incubated for 48 h at 37° C., 5% CO2, 95% humidity. Compounds were added and incubated 30 min followed by IL-13 as trigger. After 30 min incubation, cells were lysed and pSTAT6 determined by Fastscan phospho-stat6 (Tyr641) sandwich ELISA kit (cell signaling). Inhibitors were tested at 11 consecutive 5-fold dilutions starting from 10 μM (10 μM-[…]) in duplicate. Calculation of IC50 data, curves and QC analysis were made using Excel tools and GraphPadPrism software. QC criteria parameters: Z′≥0.35, Hill Slope range 0.5 to 5, S:B>2.

Structure (SMILES) | pIC50 (BEAS) predicted acid metabolite
COc1cc2c(cc1-n1nc(NC(=O)OCC(=O)O)c3cnc(-c4cnn5cccnc45)cc31)SCCN2 [Example A10, 2-(((1-(6-Methoxy-3,4-dihydro-2H-benzo[b][1,4]thiazin-7-yl)-6-(pyrazolo[1,5-a]pyrimidin-3-yl)-1H-pyrazolo[4,3-c]pyridin-3-yl)carbamoyl)oxy)acetic acid, reference compound] | § (pIC50<6.3)
COc1cc2c(cc1-n1nc(NC(=O)OCC(=O)O)c3cnc(-c4cnn5cccnc45)cc31)OCCN2 [Example A6, reference compound] | § (pIC50<6.3)
COc1cc2c(cc1-n1nc(C(=O)NCCN3CCC(C(=O)O)CC3)c3cnc(-c4cnn5cccnc45)cc31)OCCN2 [Example A1, 1-(2-(1-(6-methoxy-3,4-dihydro-2H-benzo[b][1,4]oxazin-7-yl)-6-(pyrazolo[1,5-a]pyrimidin-3-yl)-1H-pyrazolo[4,3-c]pyridine-3-carboxamido)ethyl)piperidine-4-carboxylic acid, reference compound] | § (pIC50<6.3)
COc1cc2c(cc1-n1nc(C(=O)NCCN3CCC(C(=O)O)CC3)c3cnc(-c4cnn5cccnc45)cc31)SCCN2 [Example A2, reference compound] | §§ (7.3>pIC50≥6.3)
COc1cc2c(cc1-n1nc(NC(=O)OCCN3CCC(C(=O)O)CC3)c3cnc(-c4cnn5cccnc45)cc31)SCCN2 [Example A5, reference compound] | §§ (7.3>pIC50≥6.3)
COc1cc2c(cc1-n1nc(C(=O)NCCN3CC[C@H](C(=O)O)C3)c3cnc(-c4cnn5cccnc45)cc31)OCCN2 [Example A3, reference compound] | § (pIC50<6.3)
COc1cc2c(cc1-n1nc(C(=O)NCCN3CCC(C(=O)O)CC3)c3cnc(Nc4ncc[nH]c4=O)cc31)OCCN2 [Example A11, reference compound] | § (pIC50<6.3)
COc1cc2c(cc1-n1nc(NC(=O)OCCN3CCC(C(=O)O)CC3)c3cnc(-c4cnn5cccnc45)cc31)OCCN2 [Example A8, reference compound] | § (pIC50<6.3)
COc1cc2c(cc1-n1nc(C(=O)NCCN3CC[C@@H](C(=O)O)C3)c3cnc(-c4cnn5cccnc45)cc31)OCCN2 [Example A4, reference compound] | § (pIC50<6.3)
COc1cc2c(cc1-n1nc(NC(=O)O[C@H]3C[C@@H](C(=O)O)C3)c3cnc(-c4cnn5cccnc45)cc31)OCCN2 [Example A7, reference compound] | § (pIC50<6.3)
COc1cc2c(cc1-n1nc(C(=O)NCCN3CCC(CC(=O)O)CC3)c3cnc(-c4cnn5cccnc45)cc31)OCCN2 [Example A12, 2-(1-(2-(1-(6-methoxy-3,4-dihydro-2H-benzo[b][1,4]oxazin-7-yl)-6-(pyrazolo[1,5-a]pyrimidin-3-yl)-1H-pyrazolo[4,3-c]pyridine-3-carboxamido)ethyl)piperidin-4-yl)acetic acid, reference compound] | § (pIC50<6.3)
COc1cc2c(cc1-n1nc(C(=O)O)c3cnc(-c4cnn5cccnc45)cc31)OCCN2 [Example A9, 1-(6-Methoxy-3,4-dihydro-2H-benzo[b][1,4]oxazin-7-yl)-6-(pyrazolo[1,5-a]pyrimidin-3-yl)-1H-pyrazolo[4,3-c]pyridine-3-carboxylic acid, reference compound] | § (pIC50<6.3)
